This passage reports EC50 results from US9233964B2, “Sulfamide piperazine derivatives as protein tyrosine kinase inhibitors and pharmaceutical use therof” (LEO PHARMA A/S, priority 2011, dated 2016).

Holding throughout (format): biochemical
The target in experiment [1] is T1, JAK2 (Homo sapiens, UniProt O60674).
T1 construct: All four purified enzymes contain only the catalytic domain; His (N); purchased Carna Biosciences, Inc; host or cells: baculovirus expression system
Briefly: JAK kinase assay (HTRF, phosphorylation of synthetic peptide), JAK2. Conditions: catalytic domain, ATP at Km (4 μM); read-out: JAK2 kinase inhibitory activity (EC50). In outline: (§1)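 Catalytic-domain human JAK1 (GST-tagged, aa 850-1154) or His-tagged JAK2, baculovirus-expressed, phosphorylated 1 µM biotinylated TK peptide at Km ATP (JAK1 7 µM, 10 mM MgCl2, 50 nM SEB; JAK2 4 µM, 5 mM MgCl2) in pH 7.0 Hepes, 20-30 min RT. EDTA stop; overnight streptavidin-XL665/cryptate HTRF read.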

For experiment [2], the target named is T2, JAK3 (Homo sapiens, UniProt P52333).
T2 construct: All four purified enzymes contain only the catalytic domain; His (N); purchased Carna Biosciences, Inc; host or cells: baculovirus expression system
Briefly: JAK kinase assay (HTRF, phosphorylation of synthetic peptide), JAK3. As to conditions: catalytic domain, ATP at Km (2 μM); read-out: JAK3 kinase inhibitory activity (EC50).

Experiment [3] addresses T3, JAK1 (Homo sapiens, UniProt P23458).
T3 construct: JAK1 (aa 850-1154) and TYK2 (aa 871-1187) are expressed with an N-terminally fused GST-tag; GST (N); purchased Carna Biosciences, Inc; host or cells: baculovirus expression system
In words: JAK kinase assay (HTRF, phosphorylation of synthetic peptide), JAK1. As to conditions: catalytic domain, ATP at Km (7 μM); read-out: JAK1 kinase inhibitory activity (EC50). In short, it runs like this: as §1

Experiment [4] deals with T4, TYK2 (Homo sapiens, UniProt P29597).
T4 construct: JAK1 (aa 850-1154) and TYK2 (aa 871-1187) are expressed with an N-terminally fused GST-tag; GST (N); purchased Carna Biosciences, Inc; host or cells: baculovirus expression system
T4 sequence (P29597 871-1187): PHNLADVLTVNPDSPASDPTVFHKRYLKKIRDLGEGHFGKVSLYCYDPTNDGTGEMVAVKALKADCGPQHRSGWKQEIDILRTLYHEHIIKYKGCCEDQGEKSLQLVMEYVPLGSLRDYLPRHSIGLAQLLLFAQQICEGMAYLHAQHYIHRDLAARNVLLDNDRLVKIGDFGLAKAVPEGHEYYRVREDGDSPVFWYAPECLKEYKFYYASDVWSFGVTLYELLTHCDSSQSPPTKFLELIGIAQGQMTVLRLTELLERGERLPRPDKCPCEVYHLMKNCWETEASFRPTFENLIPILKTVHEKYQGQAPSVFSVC
Briefly: JAK kinase assay (HTRF, phosphorylation of synthetic peptide), TYK2. Conditions: catalytic domain, ATP at Km (13 μM); read-out: TYK2 kinase inhibitory activity (EC50). In short, it runs like this: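 1 µM biotinylated TK peptide at Km ATP in pH 7.0 Hepes, 20-30 min RT. EDTA stop; overnight streptavidin-XL665/cryptate HTRF read.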

T1 sequence (O60674 849-1124 limits assumed): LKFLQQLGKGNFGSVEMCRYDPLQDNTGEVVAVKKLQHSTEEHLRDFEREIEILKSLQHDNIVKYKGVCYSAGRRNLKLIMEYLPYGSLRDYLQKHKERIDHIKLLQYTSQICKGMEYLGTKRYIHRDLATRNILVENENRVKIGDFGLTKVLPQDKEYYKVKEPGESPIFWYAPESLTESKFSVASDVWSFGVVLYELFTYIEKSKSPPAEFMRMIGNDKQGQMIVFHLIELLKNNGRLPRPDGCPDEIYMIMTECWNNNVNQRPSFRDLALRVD
T3 sequence (P23458 850-1154): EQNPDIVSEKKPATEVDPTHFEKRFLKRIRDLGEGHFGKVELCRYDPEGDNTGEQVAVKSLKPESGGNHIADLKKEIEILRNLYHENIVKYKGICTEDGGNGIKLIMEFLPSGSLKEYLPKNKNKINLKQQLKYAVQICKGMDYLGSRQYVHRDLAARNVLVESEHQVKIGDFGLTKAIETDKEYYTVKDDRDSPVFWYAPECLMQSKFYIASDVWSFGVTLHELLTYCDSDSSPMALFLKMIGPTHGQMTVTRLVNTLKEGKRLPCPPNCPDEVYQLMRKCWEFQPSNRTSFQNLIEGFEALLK
T2 sequence (P52333 822-1111 limits assumed): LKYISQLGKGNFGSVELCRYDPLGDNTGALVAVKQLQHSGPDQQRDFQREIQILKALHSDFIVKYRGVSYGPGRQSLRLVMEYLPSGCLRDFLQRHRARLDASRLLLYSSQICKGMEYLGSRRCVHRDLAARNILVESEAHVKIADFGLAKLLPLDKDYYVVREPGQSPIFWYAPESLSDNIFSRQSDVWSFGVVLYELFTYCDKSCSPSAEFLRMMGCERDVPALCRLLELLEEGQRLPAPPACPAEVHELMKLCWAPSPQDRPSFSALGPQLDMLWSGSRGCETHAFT

Consider `O=S(=O)(N(CCc1ccccc1)CCc1ccc(F)cc1)N1CCN(c2ncnc3[nH]ccc23)CC12CC2` [Example 47, 7-(7H-Pyrrolo[2,3-d]pyrimidin-4-yl)-4,7-diaza-spiro[2.5]octane-4-sulfonic acid [2-(4-fluoro-phenyl)-ethyl]-phenethyl-amide], for which the EC50 in experiment [1] was 100 to 500 nM; in experiment [2] it was above 500 nM; in experiment [3], 100 to 500 nM; in experiment [4], above 500 nM.

For `O=S(=O)(N(CCc1ccccc1)CCc1cccc(F)c1)N1CCN(c2ncnc3[nH]ccc23)CC12CC2` [Example 48, 7-(7H-Pyrrolo[2,3-d]pyrimidin-4-yl)-4,7-diaza-spiro[2.5]octane-4-sulfonic acid [2-(3-fluoro-phenyl)-ethyl]-phenethyl-amide], the EC50 in experiment [1] is 100 to 500 nM; in experiment [2], above 500 nM; in experiment [3], 100 to 500 nM; in experiment [4] it was above 500 nM.

For the compound `O=C(CN(CCc1ccccc1)S(=O)(=O)N1CCN(c2ncnc3[nH]ccc23)CC12CC2)NCc1ccccc1` [Example 49, N-Benzyl-2-{phenethyl-[7-(7H-pyrrolo[2,3-d]pyrimidin-4-yl)-4,7-diaza-spiro[2.5]octane-4-sulfonyl]-amino}-acetamide], the EC50 in experiment [1] is below 100 nM; in experiment [2], 100 to 500 nM; in experiment [3], below 100 nM; in experiment [4], above 500 nM.

As for `CC(C)NS(=O)(=O)N1CCN(c2ncnc3[nH]ccc23)CC12CC2` [Example 50, 7-(7H-Pyrrolo[2,3-d]pyrimidin-4-yl)-4,7-diaza-spiro[2.5]octane-4-sulfonic acid isopropylamide], the EC50 was below 100 nM in experiment [1], 100 to 500 nM in experiment [2], 100 to 500 nM in experiment [3] and 100 to 500 nM in experiment [4].

On to `COc1ccc(CCN(C)S(=O)(=O)N2CCN(c3ncnc4[nH]ccc34)CC23CC3)cc1OC` [Example 51, 7-(7H-Pyrrolo[2,3-d]pyrimidin-4-yl)-4,7-diaza-spiro[2.5]octane-4-sulfonic acid [2-(3,4-dimethoxy-phenyl)-ethyl]-methyl-amide], for which the half-maximal effective concentration (EC50) is below 100 nM in experiment [1], below 100 nM in experiment [2], below 100 nM in experiment [3] and 100 to 500 nM in experiment [4].

Regarding `CN(Cc1ccccc1)S(=O)(=O)N1CCN(c2ncnc3[nH]ccc23)CC12CC2` [Example 52, 7-(7H-Pyrrolo[2,3-d]pyrimidin-4-yl)-4,7-diaza-spiro[2.5]octane-4-sulfonic acid benzyl-methyl-amide], the EC50 is below 100 nM in experiment [1], below 100 nM in experiment [2], below 100 nM in experiment [3] and 100 to 500 nM in experiment [4].

Turning to `O=S(=O)(N(CCO)CCO)N1CCN(c2ncnc3[nH]ccc23)CC12CC2` [Example 54, 7-(7H-Pyrrolo[2,3-d]pyrimidin-4-yl)-4,7-diaza-spiro[2.5]octane-4-sulfonic acid bis-(2-hydroxy-ethyl)-amide], the EC50 is below 100 nM in experiment [1], below 100 nM in experiment [2], below 100 nM in experiment [3] and 100 to 500 nM in experiment [4].

In the case of `N#CCCCNS(=O)(=O)N1CCN(c2ncnc3[nH]ccc23)CC12CC2` [Example 55, 7-(7H-Pyrrolo[2,3-d]pyrimidin-4-yl)-4,7-diaza-spiro[2.5]octane-4-sulfonic acid (3-cyano-propyl)-amide], the EC50 is below 100 nM in experiment [1], below 100 nM in experiment [2], below 100 nM in experiment [3] and 100 to 500 nM in experiment [4].

On to `N#CCCCN(CCCC#N)S(=O)(=O)N1CCN(c2ncnc3[nH]ccc23)CC12CC2` [Example 56, 7-(7H-Pyrrolo[2,3-d]pyrimidin-4-yl)-4,7-diaza-spiro[2.5]octane-4-sulfonic acid bis-(3-cyano-propyl)-amide], for which the EC50 is below 100 nM in experiment [1], below 100 nM in experiment [2], below 100 nM in experiment [3] and 100 to 500 nM in experiment [4].

`N#CCCCN(CCCc1ccccc1)S(=O)(=O)N1CCN(c2ncnc3[nH]ccc23)CC12CC2` [Example 57, 7-(7H-Pyrrolo[2,3-d]pyrimidin-4-yl)-4,7-diaza-spiro[2.5]octane-4-sulfonic acid (3-cyano-propyl)-(3-phenyl-propyl)-amide]: the EC50 in experiment [1] was below 100 nM; in experiment [2] it was below 100 nM; in experiment [3], below 100 nM; in experiment [4], above 500 nM.

Turning to `CN(CCc1ccccc1)S(=O)(=O)N1CCN(c2ncnc3[nH]ccc23)CC12CC2` [Example 58, 7-(7H-Pyrrolo[2,3-d]pyrimidin-4-yl)-4,7-diaza-spiro[2.5]octane-4-sulfonic acid methyl-phenethyl-amide], the EC50 was below 100 nM in experiment [1], below 100 nM in experiment [2], below 100 nM in experiment [3] and 100 to 500 nM in experiment [4].

As to `CN(CC1CC1)S(=O)(=O)N1CCN(c2ncnc3[nH]ccc23)CC12CC2` [Example 59, N-(cyclopropylmethyl)-N-methyl-5-(7H-pyrrolo[2,3-d]pyrimidin-4-yl)-5,8-diazaspiro[2.5]octane-8-sulfonamide], the EC50 in experiment [1], in experiment [2], in experiment [3] and in experiment [4] was below 100 nM throughout.

For `CN(CC1CCC1)S(=O)(=O)N1CCN(c2ncnc3[nH]ccc23)CC12CC2` [Example 60, N-(cyclobutylmethyl)-N-methyl-5-(7H-pyrrolo[2,3-d]pyrimidin-4-yl)-5,8-diazaspiro[2.5]octane-8-sulfonamide], the EC50 in experiment [1], in experiment [2], in experiment [3] and in experiment [4] was below 100 nM in each case.

On to `CN(C1CCCC1)S(=O)(=O)N1CCN(c2ncnc3[nH]ccc23)CC12CC2` [Example 61, N-cyclopentyl-N-methyl-5-(7H-pyrrolo[2,3-d]pyrimidin-4-yl)-5,8-diazaspiro[2.5]octane-8-sulfonamide], for which the EC50 in experiment [1] is below 100 nM; in experiment [2], below 100 nM; in experiment [3], below 100 nM; in experiment [4], 100 to 500 nM.

Take `CN(CC1CCC(F)(F)CC1)S(=O)(=O)N1CCN(c2ncnc3[nH]ccc23)CC12CC2` [Example 62, N-[(4,4-difluorocyclohexyl)methyl]-N-methyl-5-(7H-pyrrolo[2,3-d]pyrimidin-4-yl)-5,8-diazaspiro[2.5]octane-8-sulfonamide]: the EC50 in experiment [1], in experiment [2], in experiment [3] and in experiment [4] was below 100 nM each time.

On to `CC(CN(C)S(=O)(=O)N1CCN(c2ncnc3[nH]ccc23)CC12CC2)c1ccccc1` (centres unmarked) [Example 63, N-methyl-N-(2-phenylpropyl)-5-(7H-pyrrolo[2,3-d]pyrimidin-4-yl)-5,8-diazaspiro[2.5]octane-8-sulfonamide], for which the EC50 in experiment [1] is below 100 nM; in experiment [2], below 100 nM; in experiment [3], below 100 nM; in experiment [4] it was 100 to 500 nM.

Turning to `CN(CC1CCCCO1)S(=O)(=O)N1CCN(c2ncnc3[nH]ccc23)CC12CC2` (centres unmarked) [Example 64, N-methyl-5-(7H-pyrrolo[2,3-d]pyrimidin-4-yl)-N-(tetrahydropyran-2-ylmethyl)-5,8-diazaspiro[2.5]octane-8-sulfonamide], the EC50 in experiment [1] was below 100 nM; in experiment [2] it was 100 to 500 nM; in experiment [3], below 100 nM; in experiment [4], 100 to 500 nM.
